Data published in patent publication US6344211B1, “Transdermal absorption of active substances from subcooled melts” (LTS Lohmann Therapie-Systeme GmbH, priority 1994, dated 2002).
Where two headings read alike, the source gives them in different places. Marks after values point to notes of the source that are not given here.

Tests used:
[1] = cited from earlier work
[2] = dissociation constant (pKa) of the acids used; assay type: physicochemical; settings: determined by experiment
Description: Column 1 indicates the number of the experiment, column 2 the concentration of buprenorphine base, column 3 the quality and quantity of the acid used, column 4 the dissociation constant of the acids used, column 5 the plasticizer, column 6 the polymers used, and column 7 the absorption rate under in-vitro-conditions. The relative amount of buprenorphine base diffusing through mice skin within 24 h, relative to the amount per TTS, is given. The penetration results were obtained using mice skin clamped in a Franz-Cell.
It is seen from column 4 that the dissociation constants of the carboxylic acids used are quite similar. However, if the plasticizer, oleyl oleate, is used in a 10%-concentration each time, it can be seen from Examples 1 and 3 or 2 and 4 that only the carboxylic acids having a tendency to form subcooled melts cause a marked penetration increase under in-vitro conditions. […] This was compensated by a higher concentration of the two weaker acids, amounting to 15%, as compared to the concentration of the two stronger acids. However, it can also be seen that the dissociation constants are so similar that the absorption-promoting effect cannot be explained by the dissociation constants.

O=C(O)CCCC(=O)O [glutaric acid]
pKa value ([1]; pKa I of glutaric acid, given for the glutaric acid monomethyl ester line): 4.33*

CC(=O)CCC(=O)O [levulic acid]
pKa value [2]: 4.4**

C=CCCCCCCCCC(=O)O [undecenoic acid]
pKa value ([1]; dissociation constant of the acid used in the TTS): 4.5
